Data from patent US20250000865A1, “COMPOUND FOR REDUCING URIC ACID LEVELS” (NEWSOARA BIOPHARMA CO., LTD., priority 2021, published 2025).

System: healthy subjects
Experiment: Phase I clinical trial, single-dose groups: uric acid index before and after treatment
Format: in vivo, human
Method: The changes of uric acid levels in subjects in single-dose and multi-dose groups of Compound I are shown in FIG. 1A (single dose of 6 mg and single dose of 10 mg), FIG. 1B (single dose of 20 mg and single dose of 30 mg), and FIG. 2 (multi-dose of 10 mg and multi-dose of 20 mg). The corresponding results are also shown in Tables 1.1, 1.2, 1.3, and 2.1, and tables 2.2, 2.3, and 2.4.

[1] = Last visit (day 6), single dose 20 mg, N = 9
[2] = Last visit (day 6), single dose 30 mg, N = 9

Q: COc1cccc2c1ncc1c(=O)n(C3CCC(C(=O)O)CC3)c(=O)n(-c3cccc(Cl)c3)c12 (stereo not shown) [Compound I, 4-[1-(3-chlorophenyl)-7-methoxy-2,4-dioxo-pyrimido[5,4-c]quinolin-3-yl]cyclohexanecarboxylic acid] was tested. Which “Uric acid (UA) Median” value [1] did it give?
A: 358.0 µmol/L

Q: And the “Uric acid (UA) Minimum value” [1]?
A: 237 µmol/L

Q: What about the “Uric acid (UA) maximum value” [1] of the same compound?
A: 414 µmol/L

Q: What about the “Uric acid (UA) Mean” value [2] of the same compound?
A: 287.4 µmol/L

Q: And the “Uric acid (UA) Median” value [2]?
A: 283.0 µmol/L

Q: And the “Uric acid (UA) Minimum value” [2]?
A: 207 µmol/L

Q: And the “Uric acid (UA) maximum value” [2]?
A: 364 µmol/L

Q: What about the “Uric acid (UA) Changes over baseline at last visit (on day 6), Mean” value (“Uric acid (UA) Changes … (on day 6), Mean” for short) (single dose 6 mg, N = 9) of the same compound?
A: 11.3 µmol/L

Q: And the “Uric acid (UA) Changes over baseline at last visit (on day 6), Median” value (shortened to “Uric acid (UA) Changes … (on day 6), Median”) (single dose 6 mg, N = 9)?
A: 22.0 µmol/L

Q: What about the “Uric acid (UA) Changes over baseline at last visit (on day 6), Minimum value” (single dose 6 mg, N = 9) of the same compound?
A: -48 µmol/L

Q: And the “Uric acid (UA) Changes over baseline at last visit (on day 6), maximum value” (single dose 6 mg, N = 9)?
A: 52 µmol/L

Q: And the “Uric acid (UA) Changes over baseline on day 2, Mean” value (single dose 6 mg, N = 9)?
A: -43.0 µmol/L

Q: What about the “Uric acid (UA) Changes over baseline on day 2, Median” value (single dose 6 mg, N = 9) of the same compound?
A: -32.0 µmol/L

Q: What about the “Uric acid (UA) Changes over baseline on day 2, Minimum value” (single dose 6 mg, N = 9) of the same compound?
A: -112 µmol/L

Q: And the “Uric acid (UA) Changes over baseline on day 2, maximum value” (single dose 6 mg, N = 9)?
A: 42 µmol/L

Q: And the “Uric acid (UA) Changes over baseline on day 4, Mean” value (single dose 6 mg, N = 9)?
A: -30.0 µmol/L

Q: What about the “Uric acid (UA) Changes over baseline on day 4, Median” value (single dose 6 mg, N = 9) of the same compound?
A: -18.0 µmol/L

Q: What about the “Uric acid (UA) Changes over baseline on day 4, Minimum value” (single dose 6 mg, N = 9) of the same compound?
A: -86 µmol/L

Q: What about the “Uric acid (UA) Changes over baseline on day 4, maximum value” (single dose 6 mg, N = 9) of the same compound?
A: 31 µmol/L

Q: And the “Uric acid (UA) Changes … (on day 6), Mean” value (single dose 10 mg, N = 9)?
A: 22.1 µmol/L

Q: And the “Uric acid (UA) Changes … (on day 6), Median” value (single dose 10 mg, N = 9)?
A: 19.0 µmol/L

Q: And the “Uric acid (UA) Changes over baseline at last visit (on day 6), Minimum value” (single dose 10 mg, N = 9)?
A: -27 µmol/L

Q: What about the “Uric acid (UA) Changes over baseline at last visit (on day 6), maximum value” (single dose 10 mg, N = 9) of the same compound?
A: 88 µmol/L

Q: And the “Uric acid (UA) Changes over baseline on day 2, Mean” value (single dose 10 mg, N = 9)?
A: -69.1 µmol/L

Q: And the “Uric acid (UA) Changes over baseline on day 2, Median” value (single dose 10 mg, N = 9)?
A: -70.0 µmol/L

Q: And the “Uric acid (UA) Changes over baseline on day 2, Minimum value” (single dose 10 mg, N = 9)?
A: -133 µmol/L

Q: What about the “Uric acid (UA) Changes over baseline on day 2, maximum value” (single dose 10 mg, N = 9) of the same compound?
A: 1 µmol/L

Q: What about the “Uric acid (UA) Changes over baseline on day 4, Mean” value (single dose 10 mg, N = 9) of the same compound?
A: -32.4 µmol/L

Q: What about the “Uric acid (UA) Changes over baseline on day 4, Median” value (single dose 10 mg, N = 9) of the same compound?
A: -29.0 µmol/L

Q: What about the “Uric acid (UA) Changes over baseline on day 4, Minimum value” (single dose 10 mg, N = 9) of the same compound?
A: -92 µmol/L

Q: What about the “Uric acid (UA) Changes over baseline on day 4, maximum value” (single dose 10 mg, N = 9) of the same compound?
A: 23 µmol/L

Q: What about the “Uric acid (UA) Changes … (on day 6), Mean” value (single dose 20 mg, N = 9) of the same compound?
A: 15.1 µmol/L

Q: What about the “Uric acid (UA) Changes … (on day 6), Median” value (single dose 20 mg, N = 9) of the same compound?
A: 9.0 µmol/L

Q: What about the “Uric acid (UA) Changes over baseline at last visit (on day 6), Minimum value” (single dose 20 mg, N = 9) of the same compound?
A: -34 µmol/L

Q: What about the “Uric acid (UA) Changes over baseline at last visit (on day 6), maximum value” (single dose 20 mg, N = 9) of the same compound?
A: 122 µmol/L

Q: What about the “Uric acid (UA) Changes over baseline on day 2, Mean” value (single dose 20 mg, N = 9) of the same compound?
A: -131.1 µmol/L

Q: What about the “Uric acid (UA) Changes over baseline on day 2, Median” value (single dose 20 mg, N = 9) of the same compound?
A: -130.0 µmol/L

Q: What about the “Uric acid (UA) Changes over baseline on day 2, Minimum value” (single dose 20 mg, N = 9) of the same compound?
A: -211 µmol/L

Q: What about the “Uric acid (UA) Changes over baseline on day 2, maximum value” (single dose 20 mg, N = 9) of the same compound?
A: -42 µmol/L

Q: What about the “Uric acid (UA) Changes over baseline on day 4, Mean” value (single dose 20 mg, N = 9) of the same compound?
A: -48.3 µmol/L

Q: What about the “Uric acid (UA) Changes over baseline on day 4, Median” value (single dose 20 mg, N = 9) of the same compound?
A: -62.0 µmol/L

Q: And the “Uric acid (UA) Changes over baseline on day 4, Minimum value” (single dose 20 mg, N = 9)?
A: -106 µmol/L

Q: What about the “Uric acid (UA) Changes over baseline on day 4, maximum value” (single dose 20 mg, N = 9) of the same compound?
A: 50 µmol/L

Q: And the “Uric acid (UA) Changes … (on day 6), Mean” value (single dose 30 mg, N = 9)?
A: -13.4 µmol/L

Q: What about the “Uric acid (UA) Changes … (on day 6), Median” value (single dose 30 mg, N = 9) of the same compound?
A: -20.0 µmol/L

Q: And the “Uric acid (UA) Changes over baseline at last visit (on day 6), Minimum value” (single dose 30 mg, N = 9)?
A: -75 µmol/L

Q: What about the “Uric acid (UA) Changes over baseline at last visit (on day 6), maximum value” (single dose 30 mg, N = 9) of the same compound?
A: 58 µmol/L

Q: What about the “Uric acid (UA) Changes over baseline on day 2, Mean” value (single dose 30 mg, N = 9) of the same compound?
A: -165.1 µmol/L

Q: And the “Uric acid (UA) Changes over baseline on day 2, Median” value (single dose 30 mg, N = 9)?
A: -152.0 µmol/L

Q: What about the “Uric acid (UA) Changes over baseline on day 2, Minimum value” (single dose 30 mg, N = 9) of the same compound?
A: -261 µmol/L

Q: What about the “Uric acid (UA) Changes over baseline on day 2, maximum value” (single dose 30 mg, N = 9) of the same compound?
A: -79 µmol/L

Q: And the “Uric acid (UA) Changes over baseline on day 4, Mean” value (single dose 30 mg, N = 9)?
A: -83.0 µmol/L

Q: What about the “Uric acid (UA) Changes over baseline on day 4, Median” value (single dose 30 mg, N = 9) of the same compound?
A: -69.0 µmol/L

Q: And the “Uric acid (UA) Changes over baseline on day 4, Minimum value” (single dose 30 mg, N = 9)?
A: -162 µmol/L

Q: What about the “Uric acid (UA) Changes over baseline on day 4, maximum value” (single dose 30 mg, N = 9) of the same compound?
A: -3 µmol/L

Q: And the “uric acid level in the subjects, overall clinical trial result” value (single-dose and multi-dose groups, p<0.05)?
A: reduces the uric acid level in the subjects significantly

Q: And the “uric acid level on the following days (days 4 and 6)” value (single-dose groups)?
A: gradually recovered

Q: And the “uric acid level the next day after administration” value (single-dose groups, certain dose dependence)?
A: decreases obviously
